From PubChem BioAssay AID2060886 (Molecular Pharmacology Branch, DTP, NCI, 2025)
One block for each compound: values may come before it.

Tested on: 653999-131-R-J2-PDC complex spheroids, growth inhibition
Test: Anticancer human tumor 653999-131-R-J2-PDC patient-derived lung adenocarcinoma cell line growth inhibition [RAS]
Details: for viability, T/C: stronger effect = lower value
How it was run: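 Agents were tested in combination matrices in half-log decrements from a top concentration at or near clinical Cmax (10 microM if undetermined). Targets were multi-cell spheroids of tumour lines plus HUVEC and MSC stromal cells.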

[1] = curve of first compound, second compound 0.0316 µM
[2] = curve of first compound, second compound 0.1 µM
[3] = curve of first compound, second compound 0.316 µM
[4] = curve of first compound, second compound 1 µM
[5] = curve of first compound, second compound 3.16 µM
[6] = curve of first compound, second compound 10 µM
[7] = second compound 0.0316 µM, first compound 0.00316 µM
[8] = second compound 0.0316 µM, first compound 0.01 µM
[9] = second compound 0.0316 µM, first compound 0.0316 µM
[10] = second compound 0.0316 µM, first compound 0.1 µM
[11] = second compound 0.0316 µM, first compound 0.316 µM
[12] = second compound 0.0316 µM, first compound 1 µM
[13] = second compound 0.1 µM, first compound 0.00316 µM
[14] = second compound 0.1 µM, first compound 0.01 µM
[15] = second compound 0.1 µM, first compound 0.0316 µM
[16] = second compound 0.1 µM, first compound 0.1 µM
[17] = second compound 0.1 µM, first compound 0.316 µM
[18] = second compound 0.1 µM, first compound 1 µM
[19] = second compound 0.316 µM, first compound 0.00316 µM
[20] = second compound 0.316 µM, first compound 0.01 µM
[21] = second compound 0.316 µM, first compound 0.0316 µM
[22] = second compound 0.316 µM, first compound 0.1 µM
[23] = second compound 0.316 µM, first compound 0.316 µM
[24] = second compound 0.316 µM, first compound 1 µM
[25] = second compound 1 µM, first compound 0.00316 µM
[26] = second compound 1 µM, first compound 0.01 µM
[27] = second compound 1 µM, first compound 0.0316 µM
[28] = second compound 1 µM, first compound 0.1 µM
[29] = second compound 1 µM, first compound 0.316 µM
[30] = second compound 1 µM, first compound 1 µM
[31] = second compound 3.16 µM, first compound 0.00316 µM
[32] = second compound 3.16 µM, first compound 0.01 µM
[33] = second compound 3.16 µM, first compound 0.0316 µM
[34] = second compound 3.16 µM, first compound 0.1 µM
[35] = second compound 3.16 µM, first compound 0.316 µM
[36] = second compound 3.16 µM, first compound 1 µM
[37] = second compound 10 µM, first compound 0.00316 µM
[38] = second compound 10 µM, first compound 0.01 µM
[39] = second compound 10 µM, first compound 0.0316 µM
[40] = second compound 10 µM, first compound 0.1 µM
[41] = second compound 10 µM, first compound 0.316 µM
[42] = second compound 10 µM, first compound 1 µM
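Further: spheroids exposed to the agents for seven days before the readout.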

IC50 (curve of first compound, second compound 0.000949 µM): > 300 nM
IC50 (curve of first compound, second compound 0.003 µM): > 300 nM
IC50 (curve of first compound, second compound 0.00949 µM): > 300 nM
IC50 (curve of first compound, second compound 0.03 µM): > 300 nM
IC50 (curve of first compound, second compound 0.0949 µM): > 300 nM
IC50 (curve of first compound, second compound 0.3 µM): > 300 nM
SMILES: CC1(C)CCC(Nc2ncc(C(F)(F)F)c(-c3c[nH]c4c(P(C)(C)=O)c(C#N)ccc34)n2)CN1 (stereo not drawn) + CCn1c(-c2cccnc2C(C)OC)c2c3cc(ccc31)N1CCOC(CC(NC(=O)C(C(C)C)N(C)C(=O)C3(F)CCN(C(=O)C#CC(C)(C)N(C)C)CC3)C(=O)N3CCCC(N3)C(=O)OCC(C)(C)C2)C1
viability, T/C (second compound 0.000949 µM, first compound 0.000949 µM): 89.4%
viability, T/C (second compound 0.000949 µM, first compound 0.003 µM): 82.6%
viability, T/C (second compound 0.000949 µM, first compound 0.00949 µM): 81.1%
viability, T/C (second compound 0.000949 µM, first compound 0.03 µM): 79.7%
viability, T/C (second compound 0.000949 µM, first compound 0.0949 µM): 84.6%
viability, T/C (second compound 0.000949 µM, first compound 0.3 µM): 71.6%
viability, T/C (second compound 0.003 µM, first compound 0.000949 µM): 96%
viability, T/C (second compound 0.003 µM, first compound 0.003 µM): 84.2%
viability, T/C (second compound 0.003 µM, first compound 0.00949 µM): 79.5%
viability, T/C (second compound 0.003 µM, first compound 0.03 µM): 77.7%
viability, T/C (second compound 0.003 µM, first compound 0.0949 µM): 84.9%
viability, T/C (second compound 0.003 µM, first compound 0.3 µM): 71.2%
viability, T/C (second compound 0.00949 µM, first compound 0.000949 µM): 99.5%
viability, T/C (second compound 0.00949 µM, first compound 0.003 µM): 89.3%
viability, T/C (second compound 0.00949 µM, first compound 0.00949 µM): 84.9%
viability, T/C (second compound 0.00949 µM, first compound 0.03 µM): 72%
viability, T/C (second compound 0.00949 µM, first compound 0.0949 µM): 79.3%
viability, T/C (second compound 0.00949 µM, first compound 0.3 µM): 87.2%
viability, T/C (second compound 0.03 µM, first compound 0.000949 µM): 85.4%
viability, T/C (second compound 0.03 µM, first compound 0.003 µM): 83.9%
viability, T/C (second compound 0.03 µM, first compound 0.00949 µM): 71%
viability, T/C (second compound 0.03 µM, first compound 0.03 µM): 74.1%
viability, T/C (second compound 0.03 µM, first compound 0.0949 µM): 77.4%
viability, T/C (second compound 0.03 µM, first compound 0.3 µM): 76.9%
viability, T/C (second compound 0.0949 µM, first compound 0.000949 µM): 80.4%
viability, T/C (second compound 0.0949 µM, first compound 0.003 µM): 66.8%
viability, T/C (second compound 0.0949 µM, first compound 0.00949 µM): 67.5%
viability, T/C (second compound 0.0949 µM, first compound 0.03 µM): 68%
viability, T/C (second compound 0.0949 µM, first compound 0.0949 µM): 74%
viability, T/C (second compound 0.0949 µM, first compound 0.3 µM): 70.3%
viability, T/C (second compound 0.3 µM, first compound 0.000949 µM): 82.3%
viability, T/C (second compound 0.3 µM, first compound 0.003 µM): 71.7%
viability, T/C (second compound 0.3 µM, first compound 0.00949 µM): 63.8%
viability, T/C (second compound 0.3 µM, first compound 0.03 µM): 63.9%
viability, T/C (second compound 0.3 µM, first compound 0.0949 µM): 70.8%
viability, T/C (second compound 0.3 µM, first compound 0.3 µM): 64.5%

IC50 (curve of compound): 727 nM [middle of 4 runs]
SMILES: CC(Nc1ccc2c(c1)OCCn1cc(N3C(=O)OCC3C(F)F)nc1-2)C(N)=O (stereo not drawn)
viability, T/C (compound 0.0316 µM): 79.8% [middle of 4 runs]
viability, T/C (compound 0.1 µM): 77.8% [middle of 4 runs]
viability, T/C (compound 0.316 µM): 57.4% [middle of 4 runs]
viability, T/C (compound 1 µM): 45.6% [middle of 4 runs]
viability, T/C (compound 3.16 µM): 36.4% [middle of 4 runs]
viability, T/C (compound 10 µM): 25.5% [middle of 4 runs]

IC50 [1]: 92.7 nM
IC50 [2]: 54.7 nM
IC50 [3]: 106 nM
IC50 [4]: < 3.16 nM
IC50 [5]: < 3.16 nM
IC50 [6]: < 3.16 nM
SMILES: O=C(c1ccc(F)c(F)c1Nc1ccc(I)cc1F)N1CC(O)([C@@H]2CCCCN2)C1 + C#Cc1c(F)ccc2cc(O)cc(-c3ncc4c(N5CC6CCC(C5)N6)nc(OCC56CCCN5CC(F)C6)nc4c3F)c12
viability, T/C [7]: 88.1%
viability, T/C [8]: 90.7%
viability, T/C [9]: 60.7%
viability, T/C [10]: 52.7%
viability, T/C [11]: 25.6%
viability, T/C [12]: 7.56%
viability, T/C [13]: 70.9%
viability, T/C [14]: 70.6%
viability, T/C [15]: 63%
viability, T/C [16]: 34.6%
viability, T/C [17]: 24%
viability, T/C [18]: 8.72%
viability, T/C [19]: 62.3%
viability, T/C [20]: 60.1%
viability, T/C [21]: 66.6%
viability, T/C [22]: 49.9%
viability, T/C [23]: 23.8%
viability, T/C [24]: 8.41%
viability, T/C [25]: 50.1%
viability, T/C [26]: 39.8%
viability, T/C [27]: 51.2%
viability, T/C [28]: 43.4%
viability, T/C [29]: 19.1%
viability, T/C [30]: 6.71%
viability, T/C [31]: 34.5%
viability, T/C [32]: 31.5%
viability, T/C [33]: 31.6%
viability, T/C [34]: 21.4%
viability, T/C [35]: 12.8%
viability, T/C [36]: 5.39%
viability, T/C [37]: 26%
viability, T/C [38]: 22.1%
viability, T/C [39]: 11.9%
viability, T/C [40]: 11.9%
viability, T/C [41]: 8.98%
viability, T/C [42]: 2.85%

IC50 [1]: > 1000 nM
IC50 [2]: 613 nM
IC50 [3]: 61.7 nM
IC50 [4]: 17.7 nM
IC50 [5]: < 3.16 nM
IC50 [6]: < 3.16 nM
SMILES: C=CC(=O)Nc1cc(Nc2nccc(-c3cn(C)c4ccccc34)n2)c(OC)cc1N(C)CCN(C)C + C#Cc1c(F)ccc2cc(O)cc(-c3ncc4c(N5CC6CCC(C5)N6)nc(OCC56CCCN5CC(F)C6)nc4c3F)c12
viability, T/C [7]: 96.1%
viability, T/C [8]: 80.7%
viability, T/C [9]: 82.9%
viability, T/C [10]: 68.3%
viability, T/C [11]: 55.5%
viability, T/C [12]: 63.3%
viability, T/C [13]: 89.4%
viability, T/C [14]: 90.8%
viability, T/C [15]: 57.7%
viability, T/C [16]: 69.9%
viability, T/C [17]: 57.2%
viability, T/C [18]: 44.3%
viability, T/C [19]: 77%
viability, T/C [20]: 95%
viability, T/C [21]: 65.1%
viability, T/C [22]: 37.1%
viability, T/C [23]: 40.9%
viability, T/C [24]: 39.2%
viability, T/C [25]: 60.9%
viability, T/C [26]: 53.7%
viability, T/C [27]: 43.2%
viability, T/C [28]: 42.8%
viability, T/C [29]: 36.1%
viability, T/C [30]: 28.1%
viability, T/C [31]: 45.6%
viability, T/C [32]: 35.2%
viability, T/C [33]: 38.3%
viability, T/C [34]: 25.9%
viability, T/C [35]: 22.8%
viability, T/C [36]: 19.6%
viability, T/C [37]: 35.2%
viability, T/C [38]: 27.7%
viability, T/C [39]: 26.4%
viability, T/C [40]: 15.5%
viability, T/C [41]: 15.2%
viability, T/C [42]: 10.5%
